Entries after “also recorded” stand apart in the source; their conditions may differ.
Assays:
[1] = system: nervomuscular conduction, anterior tibial muscle; experiment: Nervomuscular block in cats, indirect stimulation of anterior tibial muscle; assay type: in vivo
Description: The preparation was studied in acute experiments on cats, rabbits, mice and pigeons, in experiments on phrenico-diaphragm preparations of rats, and also on the straight muscle of a frog abdomen. The properties of Tercuronium were compared with those of α-tubocurarin and pancuronium.
(§1) Cats were narcotized (with chloralose, 50 mg per kg body weight, and urethane, 500 mg/kg, intraperitoneally) or decerebrated at the quadrigeminal bodies level. The lungs were ventilated artificially whenever necessary. Contractions of the anterior tibial muscle were recorded in isotonic concitions in response to electric stimulation of the peripheral part of n. peroneus with supramaximum pulses of 0.1 msec at a frequency of 0.1-100 Hz.

[2] = system: nervomuscular conduction, anterior tibial muscle; experiment: Neostigmin antagonism of nervomuscular block in cats; assay type: in vivo
Description: as §1
For example, even with a 5-fold dose of tercuronium, muscle contractility was restored already in 2 to 5 minutes following a single injection of neostigmin in a dose of 0.1 mg/kg, and in 15-20 minutes the recovery of the contactile function was complete.
In the case of pancuronium and α-tubocurarin, the restoration within these short periods of time could only be attained with 2-3 fold doses of these muscle relaxants. If the dose of pancuronium was increased 4 to 5 times, weak contractions of the muscle were observed not sooner than in 9 to 10 minutes and the contraction was, restored completely only 30 minutes after the injection of neostigmin (six experiments). The restoration of muscle contractility is delayed even longer in the case of α-tubocurarin.

[3] = system: pigeons; experiment: Paralysis in pigeons; assay type: in vivo
[4] = system: phrenico-diaphragm preparations; experiment: Block of nervomuscular conduction in isolated phrenico-diaphragm preparations; design: species or system rats; conditions: rat, isolated by the Bulbring method
Excerpt: In experiments on phrenico-diaphragm preparations of rats, isolated by the Bulbring method, the block of the nervomuscular conduction developed under the action of Tercuronium in a concentration of 2 × 10^-6 m/litre.

[5] = system: respiration; experiment: Inhibition of respiration in narcotized and decerebrated cats (and rabbits); assay type: in vivo
Excerpt: This developed simultaneously with the block of the nervomuscular conduction in the anterior tibial muscle. […] The same result was obtained in experiments on rabbits. The ratio of LD50 in experiments on rabbits and mice, as specified above, also provides data on the that Tercuronium produces on respiration.

[6] = Effect on arterial pressure in cats and rabbits; assay type: in vivo; conditions: rabbit, in vivo, iv, artificial ventilation
Description: (§2) Experiments were carried out on narcotized cats and rabbits (50 mg/kg of chloralose and 500 mg/kg urethane, intraperitoneally) and also on cats decerebrated at the quadrigeminal level. The blood pressure in the carotid artery was recorded with a mercury pressure gauge. The preparations were injected intravenously.
(§3) When Tercuronium was given in a quantity ten times exceeding the myoparalytic dose (0.8 mcM/kg) an insignificant and transient reduction (10 to 20 mm Hg) of the blood pressure was observed. The animals (7 cats and 5 rabbits) tolerated injections of very large doses of Tercuronium, viz., 10-20 mcM/kg, which is 200 times higher than the myoparalytic dose. […] In all experiments, in 1 to 2 hours, the arterial pressure restored completely or was close to the initial level.

[7] = system: arterial pressure; experiment: Effect on arterial pressure in cats and rabbits; assay type: in vivo
Description: as §2, §3

[8] = system: M-cholinoreceptors; experiment: Depression after intravenous acetylcholine in cats; assay type: in vivo; conditions: 0.1 to 1.0 mcM/kg; acetylcholine 3 mg/kg; three cats
Description: Experiments were carried out on narcotized cats (chloralose and urethane, intraperitoneally).

[9] = system: rabbits; experiment: Chronic toxicity in rabbits; assay type: in vivo
Description: Tercuronium was given intravenously to four rabbits, once a day in the course of twelve days, in a dose that induced the head-drop symptom, i.e. 0.02 to 0.024 mcM/kg. Physiological solution was injected instead of Tercuronium to two other rabbits (controls). The animals were weighed daily, their rectal temperature taken, and behaviour observed. Clinical analysis of urine and blood was performed three times. At the end of the experiment, the rabbits were killed (phlebotomy). The liver, kidneys, heart, lungs, adrenal glands, spleen, as well as marginal ear vein, into which Tercuronium had been injected, were histologically studied.

[10] = system: blood coagulation and erythrocytes; experiment: Effect on blood coagulation rate and resistance of erythrocytes; assay type: in vivo; conditions: two rabbits, two narcotized cats
[11] = system: rabbits; experiment: Allergizing action, Arthus-Sakharov phenomenon in rabbits; assay type: in vivo; conditions: seven subcutaneous injections at 5-day intervals
Description: In order to study the allergizing action of Tercuronium, we used the Arthus-Sakharov phenomenon. Experiments were carried on three rabbits. Tercuronium was injected to each rabbit in a dose of […] subcutaneously on the left side of the back in a volume of 0.2 to 0.25 ml, and 1 ml of horse serum was injected into the right side of the back (also subcutaneously). We made seven injections at 5-day in tervals. Horse serum alone was injected to the fourth (control) rabbit in the same order.

[12] = system: patients; experiment: Surgical operations, second series (intubation and maintenance); assay type: in vivo, patients (human)
Description: We tried Tercuronium as a muscle relaxant in surgical operations on the abdominal and thoracic organs in 150 patients. The operations were carried out in conditions of intubation narcosis and artificial lung ventilation. Ether, fluorothane, nitrous oxide and barbiturates were used as anesthetics.
In the second series of observations (30 operations), Tercuronium was used for both maintaining muscle relaxation and intubation of the trachea. For this purpose, Tercuronium was used intravenously in a dose of 0.25 to 0.3 mg/kg. […] The relaxation continued for about an hour. For a longer relaxation of muscles, a repeated injection of Tercuronium in a dose of 0.05 to 0.08 mg/kg was required.

[13] = system: postsynaptic membrane of skeletal muscle; experiment: Site of action: close intra-arterial acetylcholine and direct stimulation; assay type: in vivo; conditions: cats
Description: as §1
The blocking effect of Tercuronium is due to its action on the postsynaptic membrane of skeletal muscle.

[14] = 0.08 micromole per kg intravenous
[15] = 0.02 to 0.024 mcM/kg daily, twelve days

CC[N+](CC)(CC)c1ccc(-c2ccc(-c3ccc([N+](CC)(CC)CC)cc3)cc2)cc1 [Tercuronium, p,p"-bis-triethylammonio-n-terphenyl dibenzenesulphonate]
dependence of block on stimulation frequency [1]: more manifest with increasing frequency of pulse stimuli; also recorded: tetanization of the motor nerve at a frequency of 50 to 100 Hz produces a pessimal reaction in the muscle | influence of other agents on action [1]: lessened by the action of neostigmin, succinylcholine, decamethonium, and acetylcholine and strengthened by α-tubocurarin | mean duration of effect [1]: eight | block of nervomuscular conduction [1, 14]: 95-100% | time to block following injection [1, 14]: 40 to 60 s | time to complete restoration of muscle contractility ([1]; after injection): 10 ± 1.5 min | dose blocking nervomuscular conduction (95-100 percent) ([1]; intravenous, 0.1 Hz): 0.08 ± 0.002 micromole per kg | time to complete recovery of contractile function after neostigmin ([2]; 5-fold dose, neostigmin 0.1 mg/kg): 15 to 20 min | strength of neostigmin antagonism compared with other relaxants ([2]; cats): stronger that toward α-tubocurarin or pancuronium; also recorded: stronger with Tercuronium than with pancuronium or α-tubocurarin | number of myoparalytic doses whose blocking effect is completely removed by neostigmin ([2]; neostigmin 0.1 mg/kg intravenous, within five minutes): five | restoration from block by neostigmin ([2]; neostigmin 0.05 to 0.1 mg/kg intravenous): fully and immediately restored | effect in pigeons ([3]; 0.2 mcM/kg intravenous): weak paralysis developed; also recorded: shows the nondepolarizing effect as well | ED50 ([3]; Columbidae, pigeons, intravenous): 0.2 µmol/kg | concentration blocking nervomuscular conduction [4]: 2 × 10^-6 m/litre | bronchospasm ([5]; 200-1000-fold dose, artificial ventilation, cats, same in rabbits): bronchospasm did not develop | inhibition of respiration by blocking doses, comparison ([5]; from LD50 to ED50 ratio): equally inhibit respiration | effect on respiration ([5]; narcotized and decerebrated cats): respiration was inhibited and stopped by a curare-like paralysis of the diaphragm; also recorded: respiration was restored simultaneously with the restoration of the muscle contraction | selectivity ratio ([6]; 10-20 mcM/kg, read-out: tolerated dose as multiple of myoparalytic dose): 200 | MTD ([6]; cats and rabbits, read-out: tolerated dose): 10 to 20 µmol/kg | blood pressure at very large doses ([7]; 10-20 mcM/kg): quickly and sharply dropped and then slowly normalized | arterial pressure on doses that inhibit respiration ([7]; active ventilation of the lungs): asphyxial rise in the arterial pressure | effect on arterial pressure of myoparalytic (complete block) dose ([7]; artificial ventilation): the arterial pressure was not affected | reduction of blood pressure ([7]; ten times the myoparalytic dose (0.8 mcM/kg)): 10-20 mm Hg | effect on arterial pressure, comparison ([7]; versus the other two muscle relaxants): mildest effect on the arterial pressure | depression after intravenous acetylcholine [8]: did not produce depression | behaviour and rectal temperature [9, 15]: no appreciable changes | blood and urine analysis [9, 15]: did not find any pathological inclusions or changes | histological examination of organs [9, 15]: Nor did we discover any pathological changes | sensitivity of animals in the course of the experiment ([9]; 0.02 to 0.024 mcM/kg intravenous daily, twelve days): did not change in the course of the experiment | irritating action at site of administration ([9]; ear vein): no signs of irritating action | blood coagulation rate and resistance of the erythrocytes [10]: did not discover any effect | local allergic reaction [11]: no reaction | cardiovascular disorders or other complications ([12]; 0.25 to 0.3 mg/kg): not accompanied by cardiovacular disorders or any other complications | duration of relaxation ([12]; 0.25 to 0.3 mg/kg intravenous): about an hour | intubation conditions ([12]; 0.25 to 0.3 mg/kg intravenous): unobstructed intubation | postoperative complications ([12]; postoperative period): no cases of muscle atomia, respiratory insufficiency, or recurarization | efficiency of proserpin as deblocking agent ([12]; proserpin): complete | site of blocking action [13]: contraction of muscles induced by acetylcholine injected by the close intra-arterial method, was inhibited simultaneously with the block of the nervomuscular condution; also recorded: it contracted in response to direct stimuli

— patent US4060652A (priority 1976, dated 1977)
